Drawing on ChEMBL document CHEMBL4014275, “Discovery of benzofuran-3(2H)-one derivatives as novel DRAK2 inhibitors that protect islet β-cells from apoptosis” (Eur J Med Chem, 2017), this text covers IC50 and Kd for two molecules.

Experiment [1] concerns the target T1, Serine/threonine-protein kinase 17B (Homo sapiens, UniProt O94768).
T1 sequence (O94768 whole entry): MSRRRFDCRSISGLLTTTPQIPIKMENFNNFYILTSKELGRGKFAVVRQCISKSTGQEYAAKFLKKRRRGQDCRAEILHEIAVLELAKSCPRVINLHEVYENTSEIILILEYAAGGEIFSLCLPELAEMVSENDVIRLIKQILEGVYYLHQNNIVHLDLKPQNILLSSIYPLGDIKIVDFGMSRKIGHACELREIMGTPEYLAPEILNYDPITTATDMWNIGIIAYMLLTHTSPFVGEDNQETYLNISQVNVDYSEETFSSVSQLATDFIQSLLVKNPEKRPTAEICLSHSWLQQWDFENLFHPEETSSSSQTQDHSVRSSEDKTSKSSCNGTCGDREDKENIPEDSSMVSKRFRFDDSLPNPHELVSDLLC
Kind of experiment: Inhibition of DRAK2 (unknown origin).

Experiment [2] addresses T2, Serine/threonine-protein kinase 17A (Homo sapiens, UniProt Q9UEE5).
T2 sequence (Q9UEE5 whole entry): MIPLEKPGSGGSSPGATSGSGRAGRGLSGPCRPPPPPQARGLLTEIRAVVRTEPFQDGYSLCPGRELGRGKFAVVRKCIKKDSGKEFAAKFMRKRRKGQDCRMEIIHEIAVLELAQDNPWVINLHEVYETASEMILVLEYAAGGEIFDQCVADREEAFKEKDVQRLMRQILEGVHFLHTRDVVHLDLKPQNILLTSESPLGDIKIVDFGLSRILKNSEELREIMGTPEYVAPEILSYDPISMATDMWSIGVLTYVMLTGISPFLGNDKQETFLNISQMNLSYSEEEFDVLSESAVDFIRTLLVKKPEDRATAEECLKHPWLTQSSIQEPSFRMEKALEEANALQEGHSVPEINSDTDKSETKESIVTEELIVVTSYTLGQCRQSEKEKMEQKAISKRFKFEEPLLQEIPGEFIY
Kind of experiment: Binding affinity to DRAK1 (unknown origin).

Experiment [3] has as its target Death-associated protein kinase 1 (Homo sapiens, UniProt P53355). Kind of experiment: Binding affinity to DAPK1 (unknown origin).
The target of experiment [4] is Glycogen synthase kinase-3 beta (Homo sapiens, UniProt P49841). Kind of experiment: Inhibition of human GSK3beta.
Chain of Glycogen synthase kinase-3 beta (P49841 whole entry): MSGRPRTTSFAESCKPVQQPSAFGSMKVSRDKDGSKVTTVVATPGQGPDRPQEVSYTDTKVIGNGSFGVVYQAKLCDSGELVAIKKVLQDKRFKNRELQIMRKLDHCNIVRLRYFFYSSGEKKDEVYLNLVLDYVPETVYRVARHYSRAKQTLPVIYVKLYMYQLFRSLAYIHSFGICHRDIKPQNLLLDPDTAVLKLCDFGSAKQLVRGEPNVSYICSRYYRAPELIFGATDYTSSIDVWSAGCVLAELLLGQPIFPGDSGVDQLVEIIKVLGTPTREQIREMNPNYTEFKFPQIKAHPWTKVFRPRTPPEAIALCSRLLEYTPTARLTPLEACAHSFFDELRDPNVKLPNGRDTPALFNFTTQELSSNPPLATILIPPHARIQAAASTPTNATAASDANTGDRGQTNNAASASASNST
In experiment [5] the target is Tyrosine-protein kinase BTK (Homo sapiens, UniProt Q06187). Description: Inhibition of human BTK.
Chain of Tyrosine-protein kinase BTK (Q06187 whole entry): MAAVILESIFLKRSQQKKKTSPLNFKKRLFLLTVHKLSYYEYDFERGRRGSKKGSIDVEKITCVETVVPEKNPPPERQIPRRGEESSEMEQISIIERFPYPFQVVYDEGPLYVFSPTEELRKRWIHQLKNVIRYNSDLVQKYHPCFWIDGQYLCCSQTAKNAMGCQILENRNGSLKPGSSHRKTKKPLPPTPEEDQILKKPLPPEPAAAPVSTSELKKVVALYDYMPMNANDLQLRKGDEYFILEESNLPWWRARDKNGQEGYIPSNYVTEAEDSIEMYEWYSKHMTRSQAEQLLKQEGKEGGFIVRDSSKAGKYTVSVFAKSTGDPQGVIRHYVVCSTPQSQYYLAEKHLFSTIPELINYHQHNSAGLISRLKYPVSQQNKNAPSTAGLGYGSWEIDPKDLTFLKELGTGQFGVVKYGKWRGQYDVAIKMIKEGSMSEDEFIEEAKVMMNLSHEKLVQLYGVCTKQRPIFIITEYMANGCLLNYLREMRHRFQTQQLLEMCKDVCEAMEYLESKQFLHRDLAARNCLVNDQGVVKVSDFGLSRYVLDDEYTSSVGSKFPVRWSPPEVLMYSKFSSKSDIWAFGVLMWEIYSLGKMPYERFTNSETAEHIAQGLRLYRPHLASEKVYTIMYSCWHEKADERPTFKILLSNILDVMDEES
For experiment [6], the target named is T3, Inhibitor of nuclear factor kappa-B kinase subunit beta (Homo sapiens, UniProt O14920).
T3 sequence (O14920 whole entry): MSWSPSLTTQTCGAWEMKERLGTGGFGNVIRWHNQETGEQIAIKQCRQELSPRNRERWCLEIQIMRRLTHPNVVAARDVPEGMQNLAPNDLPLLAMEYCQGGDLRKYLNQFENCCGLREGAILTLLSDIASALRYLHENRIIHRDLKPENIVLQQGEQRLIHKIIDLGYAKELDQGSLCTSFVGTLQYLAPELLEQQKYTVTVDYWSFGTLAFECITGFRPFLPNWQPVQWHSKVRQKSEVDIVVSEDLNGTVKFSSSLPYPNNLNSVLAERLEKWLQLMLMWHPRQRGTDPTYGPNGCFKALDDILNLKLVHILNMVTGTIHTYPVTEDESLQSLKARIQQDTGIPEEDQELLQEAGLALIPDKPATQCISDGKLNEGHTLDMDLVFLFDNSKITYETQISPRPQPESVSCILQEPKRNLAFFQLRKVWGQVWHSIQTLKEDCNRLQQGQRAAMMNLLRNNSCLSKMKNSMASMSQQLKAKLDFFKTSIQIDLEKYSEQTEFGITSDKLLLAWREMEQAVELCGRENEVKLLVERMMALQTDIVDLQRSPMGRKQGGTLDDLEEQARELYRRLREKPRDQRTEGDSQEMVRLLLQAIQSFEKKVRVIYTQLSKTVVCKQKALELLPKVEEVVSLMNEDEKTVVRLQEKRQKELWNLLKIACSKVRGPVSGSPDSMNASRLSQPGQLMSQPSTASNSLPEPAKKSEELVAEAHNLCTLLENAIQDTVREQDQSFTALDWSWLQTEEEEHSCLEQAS
Description: Inhibition of human IKKB.

The target in experiment [7] is Tyrosine-protein kinase Blk (Homo sapiens, UniProt P51451). Kind of experiment: Inhibition of human BLK.
Chain of Tyrosine-protein kinase Blk (P51451 whole entry): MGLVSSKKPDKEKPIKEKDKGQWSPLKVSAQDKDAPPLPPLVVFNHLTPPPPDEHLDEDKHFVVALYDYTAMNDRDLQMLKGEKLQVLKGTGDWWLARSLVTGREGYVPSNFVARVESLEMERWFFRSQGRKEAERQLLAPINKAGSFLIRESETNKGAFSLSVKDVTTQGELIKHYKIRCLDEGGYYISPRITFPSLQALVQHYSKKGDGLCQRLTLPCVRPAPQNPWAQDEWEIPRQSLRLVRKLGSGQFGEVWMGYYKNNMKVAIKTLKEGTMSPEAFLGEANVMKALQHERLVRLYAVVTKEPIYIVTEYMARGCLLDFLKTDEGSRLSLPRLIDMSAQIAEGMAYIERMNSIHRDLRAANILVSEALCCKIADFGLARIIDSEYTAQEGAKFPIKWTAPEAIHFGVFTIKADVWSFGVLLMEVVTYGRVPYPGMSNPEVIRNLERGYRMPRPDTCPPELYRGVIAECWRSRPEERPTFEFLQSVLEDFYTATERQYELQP
Experiment [8] has as its target T2, Serine/threonine-protein kinase 17A. Kind of experiment: Inhibition of human DRAK1.
Experiment [9] deals with T1, Serine/threonine-protein kinase 17B. Description: Inhibition of recombinant GST-tagged DRAK2 (unknown origin) autophosphorylation after 2 hrs by ADP-glo assay. In general terms: ADP-Glo first removes unused ATP, then detects ADP through luciferase.
A further experiment concerns the target T4, Aurora kinase A (Homo sapiens, UniProt O14965).
T4 sequence (O14965 whole entry): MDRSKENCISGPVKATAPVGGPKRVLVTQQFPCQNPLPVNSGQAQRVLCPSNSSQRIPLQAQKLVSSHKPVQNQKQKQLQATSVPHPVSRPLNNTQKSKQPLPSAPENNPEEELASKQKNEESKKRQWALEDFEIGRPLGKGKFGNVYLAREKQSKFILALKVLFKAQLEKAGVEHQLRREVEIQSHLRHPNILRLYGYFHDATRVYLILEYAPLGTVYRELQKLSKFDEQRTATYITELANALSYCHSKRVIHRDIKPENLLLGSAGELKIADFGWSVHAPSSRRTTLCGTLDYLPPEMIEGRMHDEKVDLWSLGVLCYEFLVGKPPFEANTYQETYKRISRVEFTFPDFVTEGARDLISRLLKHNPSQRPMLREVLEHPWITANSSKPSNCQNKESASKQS
Kind of experiment: Inhibition of human AURORA-A.

In experiment [10] the target is Death-associated protein kinase 3 (Homo sapiens, UniProt O43293). Kind of experiment: Inhibition of human DAPK3.
Chain of Death-associated protein kinase 3 (O43293 whole entry): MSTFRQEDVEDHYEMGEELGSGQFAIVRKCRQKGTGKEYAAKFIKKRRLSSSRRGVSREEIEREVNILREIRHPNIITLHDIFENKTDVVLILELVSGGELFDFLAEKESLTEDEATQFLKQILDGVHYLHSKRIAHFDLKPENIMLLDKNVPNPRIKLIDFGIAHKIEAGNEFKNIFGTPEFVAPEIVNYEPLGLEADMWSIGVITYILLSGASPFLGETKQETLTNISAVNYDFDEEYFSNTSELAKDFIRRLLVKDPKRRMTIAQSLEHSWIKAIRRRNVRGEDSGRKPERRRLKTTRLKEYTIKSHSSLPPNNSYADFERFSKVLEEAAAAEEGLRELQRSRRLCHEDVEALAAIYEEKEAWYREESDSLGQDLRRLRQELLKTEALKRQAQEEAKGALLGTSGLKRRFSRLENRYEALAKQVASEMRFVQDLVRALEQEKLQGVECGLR
In experiment [11] the target is Death-associated protein kinase 2 (Homo sapiens, UniProt Q9UIK4). Description: Inhibition of human DAPK2.
Chain of Death-associated protein kinase 2 (Q9UIK4 whole entry): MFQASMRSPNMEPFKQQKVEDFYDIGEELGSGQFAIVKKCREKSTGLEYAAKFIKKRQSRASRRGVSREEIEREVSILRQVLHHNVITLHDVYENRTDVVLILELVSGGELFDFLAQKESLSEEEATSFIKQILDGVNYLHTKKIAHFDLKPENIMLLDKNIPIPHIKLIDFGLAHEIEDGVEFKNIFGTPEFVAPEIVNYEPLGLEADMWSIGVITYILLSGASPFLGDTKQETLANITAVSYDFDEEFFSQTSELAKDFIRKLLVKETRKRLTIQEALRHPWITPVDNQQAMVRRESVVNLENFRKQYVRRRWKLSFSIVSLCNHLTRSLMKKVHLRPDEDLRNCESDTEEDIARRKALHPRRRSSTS

Chain of Death-associated protein kinase 1 (P53355 whole entry): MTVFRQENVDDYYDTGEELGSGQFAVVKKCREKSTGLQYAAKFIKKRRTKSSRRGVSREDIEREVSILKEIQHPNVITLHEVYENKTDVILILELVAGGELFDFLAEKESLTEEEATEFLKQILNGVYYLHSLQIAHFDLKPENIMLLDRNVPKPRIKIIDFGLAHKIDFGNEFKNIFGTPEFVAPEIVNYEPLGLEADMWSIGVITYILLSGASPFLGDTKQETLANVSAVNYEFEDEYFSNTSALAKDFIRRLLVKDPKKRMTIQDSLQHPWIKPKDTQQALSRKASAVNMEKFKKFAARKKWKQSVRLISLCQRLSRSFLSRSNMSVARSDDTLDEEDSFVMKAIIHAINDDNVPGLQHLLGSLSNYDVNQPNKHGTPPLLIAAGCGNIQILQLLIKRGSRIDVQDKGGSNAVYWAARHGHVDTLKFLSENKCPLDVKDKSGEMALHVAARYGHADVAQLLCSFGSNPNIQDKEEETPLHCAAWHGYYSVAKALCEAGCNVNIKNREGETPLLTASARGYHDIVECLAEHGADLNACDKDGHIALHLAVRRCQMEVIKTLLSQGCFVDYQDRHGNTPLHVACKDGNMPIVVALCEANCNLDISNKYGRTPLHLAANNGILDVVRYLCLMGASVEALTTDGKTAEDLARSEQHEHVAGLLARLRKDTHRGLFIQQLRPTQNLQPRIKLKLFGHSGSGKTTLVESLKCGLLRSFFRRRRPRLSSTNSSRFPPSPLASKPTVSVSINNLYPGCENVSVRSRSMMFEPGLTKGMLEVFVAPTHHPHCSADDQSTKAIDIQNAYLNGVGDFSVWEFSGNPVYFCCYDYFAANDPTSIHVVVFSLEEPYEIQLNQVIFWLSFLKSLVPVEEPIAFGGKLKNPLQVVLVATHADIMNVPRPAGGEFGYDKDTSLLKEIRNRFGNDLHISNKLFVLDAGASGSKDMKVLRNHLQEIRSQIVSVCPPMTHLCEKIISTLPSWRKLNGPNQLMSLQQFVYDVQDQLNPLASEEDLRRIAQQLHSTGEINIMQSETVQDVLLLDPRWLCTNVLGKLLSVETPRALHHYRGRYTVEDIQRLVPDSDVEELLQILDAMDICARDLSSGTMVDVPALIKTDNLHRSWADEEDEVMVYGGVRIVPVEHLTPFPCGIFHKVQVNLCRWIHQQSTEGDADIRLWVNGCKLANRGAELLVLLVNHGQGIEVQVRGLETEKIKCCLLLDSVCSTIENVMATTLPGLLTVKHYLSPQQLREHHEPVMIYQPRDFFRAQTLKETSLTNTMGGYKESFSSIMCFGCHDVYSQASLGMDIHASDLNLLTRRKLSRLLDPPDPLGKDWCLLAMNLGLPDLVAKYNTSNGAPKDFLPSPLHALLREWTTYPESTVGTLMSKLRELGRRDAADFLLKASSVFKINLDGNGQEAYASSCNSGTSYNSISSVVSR

A word on the IC50: it is the concentration that gives 50% inhibition. As usually defined, the Kd is a measure of binding affinity in units of concentration. The low end stands for higher affinity, the high end for lower affinity. In experiment [1], `Nc1c(-c2n[nH]c(=S)o2)sc2ncc(-c3ccsc3)cc12` showed an IC50 of 0.029 µM. Besides, the results for the Kd in [2] and in experiment [3] were 0.099 µM and 0.054 µM, respectively.

With `CCOc1cc(/C=C2\Oc3ccc(OC)cc3C2=O)ccc1O`, the IC50 amounted to 5.01 µM in [4]; 5 µM in experiment [5]; 6.23 µM in [6]; 5.26 µM in [7]; 1.41 µM in experiment [8]; 0.33 µM in [9]. Further, the IC50 at Aurora kinase A amounted to 9.92 µM; in [10], 18.9 µM; in experiment [11], 22.7 µM.
